# Laboratory results as given in ChEMBL document CHEMBL1201862, “PubChem BioAssay data set” (2004).
# Active and inactive are the calls of the source.
# What was measured:
# [1] = target: T1, Heat shock factor protein 1 (Mus musculus, UniProt P38532); assay: inhibition of MG132-induced HSE-luciferase signal, confirmation, cell-based, NIH3T3, luminescence, dose retest (AID 2382); type: functional;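 note: NIH3T3 fibroblasts with HSF1-driven luciferase reporter stressed by proteasome inhibitor MG132; luminescence from HSF1-driven luciferase expression after 8 hours of MG132 stress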
# T1 sequence (P38532 whole entry): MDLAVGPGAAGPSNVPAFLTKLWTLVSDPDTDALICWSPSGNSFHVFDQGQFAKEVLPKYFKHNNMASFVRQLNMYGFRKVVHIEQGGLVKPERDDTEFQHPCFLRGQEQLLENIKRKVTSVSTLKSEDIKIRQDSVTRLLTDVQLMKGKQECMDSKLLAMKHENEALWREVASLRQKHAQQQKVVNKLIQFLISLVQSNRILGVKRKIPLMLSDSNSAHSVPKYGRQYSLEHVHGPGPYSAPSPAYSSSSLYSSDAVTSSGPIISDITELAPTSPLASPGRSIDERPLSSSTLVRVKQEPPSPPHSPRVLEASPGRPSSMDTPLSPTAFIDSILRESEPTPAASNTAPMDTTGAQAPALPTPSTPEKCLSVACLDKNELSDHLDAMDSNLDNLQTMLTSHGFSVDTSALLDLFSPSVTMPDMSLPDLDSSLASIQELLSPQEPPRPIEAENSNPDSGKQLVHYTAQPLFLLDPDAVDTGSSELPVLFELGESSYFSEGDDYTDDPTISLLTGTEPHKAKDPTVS
# [2] = target: T2, RNA-binding protein pos-1 (Caenorhabditis elegans, UniProt G5EF15); assay: inhibitors of POS-1/mex-3 RNA binding, dose response, biochemical, fluorescence polarization (AID 1964);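 note: purified POS-1 fused to maltose binding protein made in E. coli; potency of compounds blocking POS-1 binding to fluorescent RNA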
# T2 sequence (G5EF15 whole entry): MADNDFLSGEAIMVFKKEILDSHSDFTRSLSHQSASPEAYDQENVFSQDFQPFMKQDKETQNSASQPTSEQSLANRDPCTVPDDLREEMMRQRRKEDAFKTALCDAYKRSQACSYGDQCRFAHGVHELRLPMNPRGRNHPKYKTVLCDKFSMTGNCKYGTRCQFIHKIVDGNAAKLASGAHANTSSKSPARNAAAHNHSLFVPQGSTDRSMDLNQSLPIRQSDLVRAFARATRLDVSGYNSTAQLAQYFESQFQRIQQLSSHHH
# [3] = target: T3, Zinc finger protein mex-5 (Caenorhabditis elegans, UniProt Q9XUB2); assay: MEX-5/TCR-2 RNA interaction inhibitors, dose response, biochemical, C. elegans, fluorescence polarization (AID 1960)
# T3 sequence (Q9XUB2 whole entry): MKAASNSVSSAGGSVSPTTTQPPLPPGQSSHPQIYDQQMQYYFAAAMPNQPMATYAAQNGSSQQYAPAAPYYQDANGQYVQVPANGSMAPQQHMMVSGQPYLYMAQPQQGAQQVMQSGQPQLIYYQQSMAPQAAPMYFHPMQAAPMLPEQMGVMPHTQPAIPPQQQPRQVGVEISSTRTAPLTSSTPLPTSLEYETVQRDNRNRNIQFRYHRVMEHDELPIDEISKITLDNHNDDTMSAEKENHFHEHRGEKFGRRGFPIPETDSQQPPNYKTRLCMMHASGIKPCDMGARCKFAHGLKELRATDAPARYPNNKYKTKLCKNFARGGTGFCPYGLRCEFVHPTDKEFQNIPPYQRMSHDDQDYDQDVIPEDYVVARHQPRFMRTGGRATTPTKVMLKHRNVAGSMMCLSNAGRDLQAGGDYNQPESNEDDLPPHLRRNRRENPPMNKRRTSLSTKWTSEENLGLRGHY
# [4] = target: T4, Rac GTPase-activating protein 1 (Homo sapiens, UniProt Q9H0H5); assay: MgcRacGAP GTPase-activating activity inhibitors, confirmation, biochemical, ADP Hunter fluorescence, primary and confirmatory (AID 624330); type: functional
# T4 sequence (Q9H0H5 whole entry): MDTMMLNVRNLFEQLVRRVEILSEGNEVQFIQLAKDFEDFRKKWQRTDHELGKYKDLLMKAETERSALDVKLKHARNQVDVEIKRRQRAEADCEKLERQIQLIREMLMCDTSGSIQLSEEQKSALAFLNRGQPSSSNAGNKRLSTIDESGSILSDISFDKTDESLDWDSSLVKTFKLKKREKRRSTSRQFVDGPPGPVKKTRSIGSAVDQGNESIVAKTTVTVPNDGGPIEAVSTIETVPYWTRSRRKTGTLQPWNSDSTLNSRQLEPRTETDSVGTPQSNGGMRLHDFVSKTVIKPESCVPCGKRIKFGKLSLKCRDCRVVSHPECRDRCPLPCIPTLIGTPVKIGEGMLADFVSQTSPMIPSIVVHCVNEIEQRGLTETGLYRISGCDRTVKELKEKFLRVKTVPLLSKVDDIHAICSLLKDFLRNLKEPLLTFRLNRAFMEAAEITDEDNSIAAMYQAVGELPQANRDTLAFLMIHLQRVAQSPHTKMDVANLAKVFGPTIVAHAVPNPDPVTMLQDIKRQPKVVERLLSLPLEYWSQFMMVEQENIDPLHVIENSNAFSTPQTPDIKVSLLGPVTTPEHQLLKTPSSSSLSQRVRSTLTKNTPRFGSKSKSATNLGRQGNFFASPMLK
# [5] = target: T5, Corticotropin-releasing factor receptor 2/Corticotropin-releasing factor-binding protein (Homo sapiens, UniProt P24387+Q13324); assay: activators of CRF receptor 2 with binding protein – uHTS hits, confirmation (AID 602473); type: functional; conditions: read-out: EC50_Mean
# T5 sequence (Q13324 whole entry): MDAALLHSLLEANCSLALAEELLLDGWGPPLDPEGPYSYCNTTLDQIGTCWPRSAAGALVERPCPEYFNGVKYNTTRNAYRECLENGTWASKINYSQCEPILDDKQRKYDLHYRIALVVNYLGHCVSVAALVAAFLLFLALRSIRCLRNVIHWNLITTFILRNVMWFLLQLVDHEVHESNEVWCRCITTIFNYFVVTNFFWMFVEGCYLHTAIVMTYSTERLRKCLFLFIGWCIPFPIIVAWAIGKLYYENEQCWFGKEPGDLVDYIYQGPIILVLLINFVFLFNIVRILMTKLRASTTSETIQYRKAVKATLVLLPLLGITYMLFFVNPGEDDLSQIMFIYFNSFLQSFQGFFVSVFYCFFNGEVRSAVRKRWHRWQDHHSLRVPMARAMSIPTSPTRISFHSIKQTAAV
# T5 sequence (P24387 whole entry): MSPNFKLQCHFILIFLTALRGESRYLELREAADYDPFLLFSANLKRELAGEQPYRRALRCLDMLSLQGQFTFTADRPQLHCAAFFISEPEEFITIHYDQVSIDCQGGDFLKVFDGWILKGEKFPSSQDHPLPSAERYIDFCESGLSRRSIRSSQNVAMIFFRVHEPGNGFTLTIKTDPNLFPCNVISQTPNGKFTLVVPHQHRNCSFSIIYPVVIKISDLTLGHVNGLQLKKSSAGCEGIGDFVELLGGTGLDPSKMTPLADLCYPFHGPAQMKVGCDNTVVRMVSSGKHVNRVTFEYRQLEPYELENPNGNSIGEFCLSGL
# [6] = target: Cytochrome P450 2C19 (Homo sapiens, UniProt P33261); assay: Cytochrome panel assay with activity outcomes. Panel member name: p450-cyp2c19 Compounds with AC50 equal or less than 10 uM are considered active; type: functional; conditions: read-out: AC50
# [7] = target: T6, Cytochrome P450 1A2 (Homo sapiens, UniProt P05177);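 note: PubChem cytochrome P450 panel assay, CYP1A2 panel member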
# T6 sequence (P05177 whole entry): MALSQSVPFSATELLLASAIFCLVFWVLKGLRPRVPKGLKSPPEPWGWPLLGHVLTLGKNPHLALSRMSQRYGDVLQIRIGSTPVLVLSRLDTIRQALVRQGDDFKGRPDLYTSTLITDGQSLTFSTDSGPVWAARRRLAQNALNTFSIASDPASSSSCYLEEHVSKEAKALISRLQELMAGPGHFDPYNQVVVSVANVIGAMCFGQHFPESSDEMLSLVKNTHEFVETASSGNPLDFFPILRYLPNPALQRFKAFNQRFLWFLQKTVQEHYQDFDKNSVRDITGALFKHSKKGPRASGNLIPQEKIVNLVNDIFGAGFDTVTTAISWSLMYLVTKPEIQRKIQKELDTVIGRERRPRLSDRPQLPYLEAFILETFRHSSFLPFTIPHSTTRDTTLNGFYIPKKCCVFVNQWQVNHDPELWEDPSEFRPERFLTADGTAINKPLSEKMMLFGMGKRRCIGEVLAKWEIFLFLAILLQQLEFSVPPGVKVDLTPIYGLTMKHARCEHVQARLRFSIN
# Cytochrome P450 2C19, sequence (P33261 whole entry): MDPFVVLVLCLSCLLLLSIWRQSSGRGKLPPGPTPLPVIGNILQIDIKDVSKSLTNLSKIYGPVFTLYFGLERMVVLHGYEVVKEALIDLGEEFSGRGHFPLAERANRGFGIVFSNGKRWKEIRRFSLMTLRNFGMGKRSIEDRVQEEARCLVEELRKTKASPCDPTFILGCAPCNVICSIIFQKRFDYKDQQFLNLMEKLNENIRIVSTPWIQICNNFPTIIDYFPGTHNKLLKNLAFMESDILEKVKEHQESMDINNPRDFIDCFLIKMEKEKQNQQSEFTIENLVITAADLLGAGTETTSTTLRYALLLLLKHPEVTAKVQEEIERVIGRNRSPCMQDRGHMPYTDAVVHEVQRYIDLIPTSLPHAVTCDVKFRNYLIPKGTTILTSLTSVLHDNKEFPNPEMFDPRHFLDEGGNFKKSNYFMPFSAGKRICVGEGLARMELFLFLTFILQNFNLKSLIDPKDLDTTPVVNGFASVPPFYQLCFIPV
smiles,measurement,setting,value
Cc1oc(C(=O)O)cc1COc1ccc2c3c(c(=O)oc2c1C)CCC3,EC50,[1],> 195 µM (not active)
Cc1cc(C)c2cc(CN(CCN(C)C)C(=O)Nc3ccccc3Cl)c(O)nc2c1,EC50,[1],> 195 µM (not active)
O=C(NNC(=O)c1ccccc1[N+](=O)[O-])c1csc(N2CCOCC2)n1,EC50,[2],84.9 µM (active)
same,EC50,[3],0.731 µM (active)
C=CCN1C(=O)NC(=O)/C(=C/C=C/Nc2ccccc2)C1=O,EC50,[2],> 300 µM (not active)
same,EC50,[3],> 300 µM (inconclusive)
COc1ccc2c(COC(=O)CCS(=O)(=O)c3ccc(C)cc3)cc(=O)oc2c1,EC50,[1],> 195 µM (not active)
COc1cc(C(=O)NC(c2ccccc2)c2ccccc2)cc(OC)c1C,EC50,[2],> 300 µM (not active)
same,EC50,[3],> 300 µM (not active)
O=C(NC(=O)c1cccc(F)c1)OC[C@@H]1CCCN2CCCC[C@H]12,EC50,[1],> 195 µM (not active)
Cc1ccc(-c2nn[nH]n2)o1,EC50,[1],> 195 µM (not active)
Cc1nn(C(C)C(=O)NCCCc2ccccc2)c(=O)c2cc3occc3n12 (stereo not given),EC50,[1],> 195 µM (not active)
Cc1ccc(C)c(NC(=O)CCc2nnc3ccc(NCc4ccco4)nn23)c1,EC50,[1],> 195 µM (not active)
COc1ccc(CN(C)CCc2ccccn2)cc1OC,IC50,[4],74.6 µM (active)
O=C(CSc1nnc(CNC(=O)c2cccs2)o1)NCc1ccc(F)cc1,EC50,[1],> 195 µM (not active)
CCOC(=O)C1CCN(C2=NC(=O)/C(=C/c3ccc(O)cc3)S2)CC1,IC50,[4],21.2 µM (active)
CCOC(=O)c1c(NC(=O)CN2CCCCC2)sc2c1CCC(C=O)=C2Cl,EC50,[1],> 195 µM (not active)
COc1ccc2oc(=O)c(N3C(=O)c4ccccc4C3=O)cc2c1,EC50,[1],> 195 µM (not active)
COc1ccc(NC(=O)CCc2nnc3ccc(N4CCC(C)CC4)nn23)cc1OC,EC50,[1],> 195 µM (not active)
Cc1cccc(C)c1NC(=O)c1cccnc1,EC50,[1],> 195 µM (not active)
O=C(Cc1coc2cc(O)ccc12)NNC(=O)c1cccs1,IC50,[4],32.7 µM (active)
Cc1ccc2c(c1)N(C(=O)CCC(=O)N1CCN(c3ccccn3)CC1)CCO2,EC50,[5],> 53 µM (inactive)
O=C(Cc1ccccc1)Nc1ccc(N2CCOCC2)cc1N1CCOCC1,EC50,[2],> 300 µM (not active)
same,EC50,[3],> 300 µM (not active)
CC1(C)CC2=Nc3ccccc3NCC2=C(O)C1,EC50,[5],> 53 µM (inactive)
Cc1cc(C)nc(NNC2=CC(=[N+]3CCCCC3)CC(C)(C)C2)n1,EC50,[1],> 195 µM (not active)
CCN(CC)CCN1C(=O)C(O)=C(C(=O)c2cc3cccc(OC)c3o2)C1c1ccc(F)cc1 (stereo not given),EC50,[2],> 300 µM (not active)
same,EC50,[3],> 300 µM (not active)
CC1CCC2(CC1)N=C(N)Nc1nc3ccccc3n12 (stereo not given),AC50,[6],17.8 µM (inconclusive)
same,AC50,[7],12.6 µM (inconclusive)
same,EC50,[1],> 195 µM (not active)
Cc1onc(-c2ccccc2)c1C(=O)Nc1sc2c(c1C(N)=O)CCC2,EC50,[1],> 195 µM (not active)
Cc1ccc2c(c1)C1C=CCC1C(C(=O)NCCCN1CCOCC1)N2 (stereo not given),EC50,[2],> 300 µM (not active)
same,EC50,[3],> 300 µM (not active)
COc1cc(C2C(C#N)=C(N)N(N(C)C)C3=C2C(=O)CC(C)(C)C3)ccc1O (stereo not given),EC50,[1],> 195 µM (not active)
CCOc1ccccc1N1CCN(CC(=O)NC(C)c2ccccc2)CC1 (stereo not given),EC50,[1],> 195 µM (not active)
COc1cc(/C=C/C(=O)OCC(=O)NCc2ccc(F)cc2)ccc1O,IC50,[4],36.3 µM (active)
CC(Oc1ccc(Br)cc1)C(=O)Nc1ccc(S(=O)(=O)NC2=NCCCCC2)cc1 (stereo not given),EC50,[5],4.66 µM (active)
CCOc1ccc(C2=CC(c3ccccc3)n3ncnc3N2)cc1 (stereo not given),EC50,[5],> 53 µM (inactive)
COc1cc(/C=C/c2nc(O)c3ccccc3n2)ccc1O,IC50,[4],41.4 µM (active)
Cc1nn(CC(=O)N(C)C2(C#N)CCCCC2)c(C)c1[N+](=O)[O-],EC50,[5],> 53 µM (inactive)
Cc1ccc(S(=O)(=O)NCC(=O)N(CC(=O)NCc2ccco2)Cc2ccccc2)cc1,EC50,[5],10.1 µM (active)
COc1ccc(NC2CCCN(C(=O)COc3ccc(C(C)=O)cc3)C2)cc1 (stereo not given),IC50,[4],84 µM (active)
C=CCn1c(N/N=C/c2ccc(O)cc2)nc2ccccc2c1=O,IC50,[4],46.8 µM (active)
CCOc1ccc(/C=N/NC(=O)C(O)c2ccccc2)c(O)c1 (stereo not given),EC50,[1],> 195 µM (not active)
COCCNC(=O)Cn1cc(/C=N/NC(=O)c2ccc(Oc3ccc(O)cc3)cc2)c2ccccc21,IC50,[4],53.3 µM (active)
COc1ccc(/N=C2/SC(C(=O)N3CCN(c4ccccc4)CC3)CC(=O)N2C)cc1 (stereo not given),EC50,[1],> 195 µM (not active)
COc1cc(/C=N/Nc2ccc(C(F)(F)F)cn2)ccc1O,IC50,[4],36.3 µM (active)
Cc1cc(/C=N/n2cnnc2)c(C)n1-c1cccc(C(=O)O)c1,EC50,[2],> 300 µM (not active)
same,EC50,[3],> 300 µM (not active)
